Data: US20240301409A1, “Chemically Modified Small Activating RNA” (RACTIGEN THERAPEUTICS, priority 2021, published 2024)
Like-named read-outs stand apart in the source and are kept apart here. Oligonucleotides are written 5' to 3', each unit as a sugar letter and its base; * is a phosphorothioate linkage, no mark a phosphodiester; rarer units and linkages stand in square brackets, end groups in braces. Plain capitals give the bases only. r = 2'-OH (RNA); f = 2'-fluoro

Key:
[1] = tested on: Rag1-40 target sequence in the 3′ UTR of firefly luciferase, COS-1 cells; test: Analysis of off-target effects (pOff-Target dual luciferase reporter in COS-1 cells); details: lysed 48 hours after transfection, luciferase activity
Procedure: (§1) A 26 bp fragment comprising the target site of Rag1-40 was cloned in the antisense orientation into the 3′ UTR region of the firefly luciferase gene in a pmirGLO dual luciferase vector. Vector plasmids were co-transfected with the indicated saRNAs into COS-1 cells. Cells were lysed 48 hours after transfection, and the resulting lysates were assessed for luciferase activity. Data represent mean±SD of at least two independent experiments. Dashed line represents comparisons to blank control (top dashed line) and Rag1-40 (bottom dashed line). Values close to the top dashed line indicate no off-target effect.
(§2) A 26 bp fragment comprising the Rag1-40 target sequence was cloned in the antisense orientation into a multiple cloning site (MCS) of the 3′ untranslated region of firefly luciferase of the pmirGLO dual luciferase vector (Promega, Fitchburg, WI), to obtain pOff-Target plasmid. Following E. coli transformation and overnight incubation, plasmids for each construct were prepared by standard method. Each plasmid was transfected into COS-1 monkey kidney epithelial cells using Lipofectamine 3000 (Invitrogen, Carlsbad, CA). Subsequently, saRNA was transfected using RNAiMAX. After 24 hours of incubation, COS-1 cells were lysed with 1× lysis buffer, and luciferase activity was measured using dual luciferase reporter gene assay system (Promega, WI, USA) following manufacturer's instructions.
(§3) To assess the off-target effects of unmodified and modified saRNAs, a sequence complementary to the sense oligonucleotide strand of Rag1-40 was cloned into the 3′UTR region of the luciferase gene in a pmirGLO dual luciferase vector. The vector plasmid was co-transfected with the saRNA into COS-1 cells. Cells were lysed 48 hours after transfection and the resulting lysates were assessed for luciferase activity.

RNase A = target: T1, RNase A (Bos taurus, UniProt P61823)
T1 sequence (P61823 27-150): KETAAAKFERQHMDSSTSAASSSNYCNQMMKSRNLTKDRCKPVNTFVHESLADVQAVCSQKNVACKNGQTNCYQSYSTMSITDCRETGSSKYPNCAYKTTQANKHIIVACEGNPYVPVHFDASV

[2] = tested on: Rag1-40 target sequence in the 3′ UTR of firefly luciferase, COS-1 cells
Procedure: as §1, §2, §3

| Substance | off-target effect compared to unmodified Rag1-40, in words [1] | degradation of duplex at 96 hours (RNase A) | off-target effect compared to unmodified Rag1-40, in words [2] | time to complete degradation (RNase A) [h] |
| --- | --- | --- | --- | --- |
| Rag1-40-21: saRNA duplex: sense mCmCAACUCAUUCUCCAAG*U*C (SEQ ID NO 15); antisense UACUfUGGAGAAfUGAGUfUGG*fC*A (SEQ ID NO 10) (sense CCAACUCAUUCUCCAAGUC; antisense UACUUGGAGAAUGAGUUGGCA; 2'-OMe, 2'-F, phosphorothioates; modified_base (1)..(2) (1,2)=2′-O-methyl(2′-OMe); modified_base (17)..(19) (17,18,19)=phosphorothioate (PS) backbone modification; modified_base (5)..(20) (5,12,17,20)=2′-fluoro; modified_base (19)..(21) (19,20,21)=phosphorothioate (PS) backbone modification) | mitigated or similar off-target effects | – | – | – |
| Rag1-40-22: saRNA duplex: sense mCmCAACUCAUUCUCCAAG*U*C (SEQ ID NO 15); antisense fU*A*fCfUfUGGAGAAfUGAGfUfUGG*fC*A (SEQ ID NO 11) (sense CCAACUCAUUCUCCAAGUC; antisense UACUUGGAGAAUGAGUUGGCA; 2'-OMe, 2'-F, phosphorothioate modifications; modified_base (1)..(2) (1,2)=2′-O-methyl(2′-OMe); modified_base (17)..(19) (17,18,19)=phosphorothioate (PS) backbone modification; modified_base (1)..(21) (1,2,3,19,20,21)=phosphorothioate (PS) backbone modification; modified_base (1)..(20) (1,3,4,5,12,16,17,20)=2′-fluoro) | – | little or no signs of degradation | completely inhibited | – |
| Rag1-40-23: saRNA duplex: sense mCmCAACUCAUUCUCCAAG*U*C (SEQ ID NO 15); antisense U*A*fCfUfUGGAGAAfUGAGfUfUGG*fC*A (SEQ ID NO 12) (sense CCAACUCAUUCUCCAAGUC; antisense UACUUGGAGAAUGAGUUGGCA; 2'-OMe, 2'-F, phosphorothioate modifications; modified_base (1)..(2) (1,2)=2′-O-methyl(2′-OMe); modified_base (17)..(19) (17,18,19)=phosphorothioate (PS) backbone modification; modified_base (2)..(21) (2,3,19,20,21)=phosphorothioate (PS) backbone modification; modified_base (3)..(20) (3,4,5,12,16,17,20)=2′-fluoro) | – | little or no signs of degradation | mitigated or similar off-target effects | – |
| Rag1-40-26: saRNA duplex: sense fCfCAACUCAUUCUCCAAG*U*C (SEQ ID NO 16); antisense fUACUfUGGAGAAfUGAGUfUGGfCA (SEQ ID NO 7) (sense fCfCrArArCrUrCrArUrUrCrUrCrCrArArG*rU*rC; antisense fUrArCrUfUrGrGrArGrArAfUrGrArGrUfUrGrGfCrA) | – | – | increased off-target effects | ≤ 24 |
| Rag1-40-28: saRNA duplex: sense fCfCAACUCAUUCUCCAAG*U*C (SEQ ID NO 16); antisense fUACUfUGGAGAAfUGAGUfUGG*fC*A (SEQ ID NO 9) (sense fCfCrArArCrUrCrArUrUrCrUrCrCrArArG*rU*rC; antisense fUrArCrUfUrGrGrArGrArAfUrGrArGrUfUrGrG*fC*rA) | – | – | mitigated or similar off-target effects | ≤ 24 |
| Rag1-40-30: saRNA duplex: sense fCfCAACUCAUUCUCCAAG*U*C (SEQ ID NO 16); antisense fU*A*fCfUfUGGAGAAfUGAGfUfUGG*fC*A (SEQ ID NO 11) (sense fCfCrArArCrUrCrArUrUrCrUrCrCrArArG*rU*rC; antisense fU*rA*fCfUfUrGrGrArGrArAfUrGrArGfUfUrGrG*fC*rA) | – | little or no signs of degradation | mitigated or similar off-target effects | – |
